Laboratory results: patent US10975068B2, “6-aminopyridin-3-yl thiazoles as modulators of RORγT” (Janssen Pharmaceutica NV, priority 2016, dated 2021)
Where two headings read alike, the source gives them in different places.

Tests used:
full-length human RORγt = full-length human RORγt (Homo sapiens (Human), UniProt P51449); assay: RORγt (full-length human) reporter assay, Conditions B or C; format: cell-based; settings: for RORγt (FL) Reporter Assay B or C, % inhibition (value marked *): marked *: footnote not given; for IC50: read-out: RORγt (FL) Reporter Assay B or C, IC50; for inhibition at 3 µM: at 3 μM compound concentration, read-out: RORγt (FL) Reporter Assay B or C, % inhibition; for inhibition at 6 µM: read-out: RORγt (FL) Reporter Assay B or C, % inhibition @ 6 μM, Conditions B or C
Summary of the method: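 Readout is dual luciferase: firefly (GAL4-driven) normalized to DMSO-only and saturating-reference controls, then to CMV-Renilla. Full-length human RORγt fused to GAL4-DBD was transiently expressed in HEK293T; compound exposure ran overnight (16-20 h) starting 4-6 h after transfection, final FBS 1.3%, DMSO 0.1%.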

[1] = system: IL-17 production by CD4 T cells; assay: Human Th17 assay; format: cell-based
[2] = read-out: Human Th17 Assay, IC50

full-length human RORγt, sequence (P51449 other isoform, or with tags, fused parts or gaps): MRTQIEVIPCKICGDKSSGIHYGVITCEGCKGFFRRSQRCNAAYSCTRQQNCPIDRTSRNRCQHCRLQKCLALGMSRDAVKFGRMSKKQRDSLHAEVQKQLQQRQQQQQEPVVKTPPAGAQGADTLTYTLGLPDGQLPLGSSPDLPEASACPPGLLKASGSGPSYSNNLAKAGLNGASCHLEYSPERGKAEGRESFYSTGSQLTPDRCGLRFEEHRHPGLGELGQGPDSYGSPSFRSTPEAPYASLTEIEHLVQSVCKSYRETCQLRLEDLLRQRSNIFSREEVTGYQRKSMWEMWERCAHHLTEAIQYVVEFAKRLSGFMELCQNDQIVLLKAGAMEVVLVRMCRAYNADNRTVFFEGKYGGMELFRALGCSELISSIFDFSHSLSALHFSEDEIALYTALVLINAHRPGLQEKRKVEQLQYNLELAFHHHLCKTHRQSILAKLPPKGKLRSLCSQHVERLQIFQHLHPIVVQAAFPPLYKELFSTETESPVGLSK

SMILES	RORγt (FL) Reporter Assay B or C, % inhibition (value marked *) (full-length human RORγt; Conditions B or C)	IC50 (full-length human RORγt; Conditions B or C) [nM]	IC50 [1, 2] [µM]	inhibition at 3 µM (full-length human RORγt) [%]	IC50 (full-length human RORγt) [nM]	inhibition at 6 µM (full-length human RORγt) [%]	IC50 ([1]; read-out: Human Th17 Assay, IC50 (μM)) [µM]
C[C@H]1CC(F)(F)CN1C(=O)c1nc(C(=O)NCC(C)(C)O)sc1-c1cnc(NCC(C)(C)C)cc1C(F)F [Example 115, (S)-4-(4,4-Difluoro-2-methylpyrrolidine-1-carbonyl)-5-(4-(difluoromethyl)-6-(neopentylamino)pyridin-3-yl)-N-(2-hydroxy-2-methylpropyl)thiazole-2-carboxamide]	115* %	28	0.022	–	–	–	–
C[C@H]1CCCN1C(=O)c1nc(C(=O)NC[C@@H](O)C(C)(C)O)sc1-c1cnc(NC(C)(C)C)cc1C(F)(F)F (single isomer, unassigned) [Example 243, 5-(6-(tert-Butylamino)-4-(trifluoromethyl)pyridin-3-yl)-N—((R*)-2,3-dihydroxy-3-methylbutyl)-4-((S)-2-methylpyrrolidine-1-carbonyl)thiazole-2-carboxamide]	95* %	6.8	0.063	–	–	–	–
C[C@H]1CCCN1C(=O)c1nc(C(=O)NCc2n[nH]c(=O)o2)sc1-c1cnc(NC(C)(C)C)cc1C(F)(F)F [Example 305, (S)-5-(6-(tert-Butylamino)-4-(trifluoromethyl)pyridin-3-yl)-4-(2-methylpyrrolidine-1-carbonyl)-N-((5-oxo-4,5-dihydro-1,3,4-oxadiazol-2-yl)methyl)thiazole-2-carboxamide]	–	–	0.089	100	36	–	–
C[C@H](NC(=O)c1nc(C(=O)N2CC(F)(F)C[C@@H]2C)c(-c2cnc(N[C@@H](C)C(F)(F)F)cc2C(F)F)s1)C(C)(C)O [Example 197]	91* %	66	0.03	–	–	–	–
C[C@H](Nc1cc(C(F)(F)F)c(-c2sc(C(=O)NCC(C)(C)O)nc2C(=O)N2CCCC[C@@H]2C)cn1)C(F)(F)F [Example 47, N-(2-Hydroxy-2-methylpropyl)-4-((S)-2-methylpiperidine-1-carbonyl)-5-(4-(trifluoromethyl)-6-(((S)-1,1,1-trifluoropropan-2-yl)amino)pyridin-3-yl)thiazole-2-carboxamide]	96* %	5.4	0.0098	–	–	–	–
O=C(N[C@H]1C[C@H](O)C1)c1nc(C(=O)N2C3CCC2CC3)c(-c2cnc(N[C@@H](C3CC3)C(F)(F)F)cc2C(F)F)s1 [Example 318, 4-((1s,4s)-7-Azabicyclo[2.2.1]heptane-7-carbonyl)-5-(6-(((S)-1-cyclopropyl-2,2,2-trifluoroethyl)amino)-4-(difluoromethyl)pyridin-3-yl)-N-((1r,3S)-3-hydroxycyclobutyl)thiazole-2-carboxamide]	–	–	0.017	86	28	–	–
C[C@H]1CCCCN1C(=O)c1nc(C(=O)NCC(C)(C)O)sc1-c1cnc(NC2CCCC2)cc1C(F)(F)F [Example 27, (S)-5-(6-(Cyclopentylamino)-4-(trifluoromethyl)pyridin-3-yl)-N-(2-hydroxy-2-methylpropyl)-4-(2-methylpiperidine-1-carbonyl)thiazole-2-carboxamide]	–	8.4	0.016	–	–	106	–
CC(C)(O)CNC(=O)c1nc(C(=O)N2C3CCC2CC3)c(-c2cnc(NCC(C)(C)C(F)(F)F)cc2C(F)(F)F)s1 [Example 122, 4-((1s,4s)-7-Azabicyclo[2.2.1]heptane-7-carbonyl)-N-(2-hydroxy-2-methylpropyl)-5-(6-((3,3,3-trifluoro-2,2-dimethylpropyl)amino)-4-(trifluoromethyl)pyridin-3-yl)thiazole-2-carboxamide]	102* %	33	–	–	–	–	0.02
CC[C@H](Nc1cc(C(F)(F)F)c(-c2sc(C(=O)NCC(C)(C)O)nc2C(=O)N2CCC[C@@H]2C)cn1)C(F)(F)F [Example 111, N-(2-Hydroxy-2-methylpropyl)-4-((S)-2-methylpyrrolidine-1-carbonyl)-5-(6-(((S)-1,1,1-trifluorobutan-2-yl)amino)-4-(trifluoromethyl)pyridin-3-yl)thiazole-2-carboxamide]	106* %	29	0.017	–	–	–	–
C[C@H]1CCCN1C(=O)c1nc(C(=O)NCC(C)(C)O)sc1-c1cnc(NC2CCCC2)cc1C(F)(F)F [Example 38, (S)-5-(6-(Cyclopentylamino)-4-(trifluoromethyl)pyridin-3-yl)-N-(2-hydroxy-2-methylpropyl)-4-(2-methylpyrrolidine-1-carbonyl)thiazole-2-carboxamide]	–	15	0.081	–	–	108	–
C[C@H]1CC(F)(F)CN1C(=O)c1nc(C(=O)NCC(C)(C)O)sc1-c1cnc(NC2(C(F)(F)F)CCC2)cc1C(F)F [Example 124, (S)-4-(4,4-Difluoro-2-methylpyrrolidine-1-carbonyl)-5-(4-(difluoromethyl)-6-((1-(trifluoromethyl)cyclobutyl)amino)pyridin-3-yl)-N-(2-hydroxy-2-methylpropyl)thiazole-2-carboxamide]	108* %	21	0.0067	–	–	–	–
C[C@H]1CC(F)(F)CN1C(=O)c1nc(C(=O)NCC(C)(C)O)sc1-c1cnc(NC2(C)CCC2)cc1C(F)(F)F [Example 141, (S)-4-(4,4-Difluoro-2-methylpyrrolidine-1-carbonyl)-N-(2-hydroxy-2-methylpropyl)-5-(6-((1-methylcyclobutyl)amino)-4-(trifluoromethyl)pyridin-3-yl)thiazole-2-carboxamide]	100* %	23	0.0055	–	–	–	–
